According to ChEMBL document CHEMBL6127035, “Novel pyridazinone derivatives bind to KSRP: Synthesis, anti-tumor biological evaluations and modelling insights” (Eur J Med Chem, 2024):
Active and inactive are the calls of the source. The calls are words filed in the database; no cut-off is given here.

Assays:
[1] = system: MCF7; experiment: Antitumor activity against human MCF7 cells xenografted in BALB/C-nu/nu mouse model assessed as increase in gamma-H2AX expression at 20 to 30 mg/kg, iv administered every other day for 15 days by immunohistochemical analysis; assay type: functional, organism-based; conditions: dose 20-30 mg/kg, time 15.0 day
[2] = system: KB; experiment: Antiproliferative activity against human KB cells assessed as reduction in cell viability incubated for 2 days by MTT assay; assay type: functional, cell-based; conditions: 48 h
[3] = system: MDA-MB-231; experiment: Inhibition of cell migration in human MDA-MB-231 cells assessed as reduction in wound healing index measured after 72 hrs by scratch assay; assay type: functional, cell-based
[4] = system: HCT-116; experiment: Antiproliferative activity against human HCT-116 cells assessed as reduction in cell viability incubated for 2 days by MTT assay; assay type: functional, cell-based; conditions: HCT-116, 48 h
[5] = system: 4T1; experiment: Antiproliferative activity against mouse 4T1 cells assessed as reduction in cell viability incubated for 2 days by MTT assay; assay type: functional, cell-based; conditions: 4T1, 48 h
[6] = system: MCF7; experiment: Antitumor activity against human MCF7 cells xenografted in BALB/C-nu/nu mouse model assessed as decrease in tumor weight at 20 mg/kg, iv administered every other day for 15 days relative to control; assay type: functional; set-up: scale not given: the % may be the effect or the level left; conditions: time 15 day
[7] = system: MCF7; experiment: Induction of cell cycle arrest in human MCF7 cells assessed as accumulation of cells at G2/M phase cells at 5 uM incubated for 24 hrs by PI staining based flow cytometric analysis (reference value: 10.2 %); assay type: functional
[8] = Acute toxicity in ip dosed BALB/c nu/nu mouse assessed as lethal dose measured after 7 days; assay type: organism-based; conditions: in vivo, time 7 day
[9] = system: MCF7; experiment: Induction of apoptosis in human MCF7 cells assessed as early apoptotic cells at 2.5 uM incubated for 48 hrs by Annexin V-FITC/PI staining based flow cytometric analysis (reference value: 6.33 %); assay type: functional
[10] = system: MCF7; experiment: Induction of apoptosis in human MCF7 cells assessed as late apoptotic cells at 1.25 uM incubated for 48 hrs by Annexin V-FITC/PI staining based flow cytometric analysis (reference value: 5.31 %); assay type: functional
[11] = system: MCF7; experiment: Induction of apoptosis in human MCF7 cells assessed as early apoptotic cells at 0.62 uM incubated for 48 hrs by Annexin V-FITC/PI staining based flow cytometric analysis (reference value: 6.33 %); assay type: functional
[12] = Cytotoxicity against human L02 cells assessed as reduction in cell viability incubated for 2 days by MTT assay; assay type: toxicity, cell-based
[13] = system: NCI-H460; experiment: Antiproliferative activity against human NCI-H460 cells assessed as reduction in cell viability incubated for 2 days by MTT assay; assay type: functional, cell-based; conditions: NCI-H460, 48 h
[14] = system: MCF7; experiment: Induction of apoptosis in human MCF7 cells assessed as early apoptotic cells at 1.25 uM incubated for 48 hrs by Annexin V-FITC/PI staining based flow cytometric analysis (reference value: 6.33 %); assay type: functional
[15] = Toxicity in BALB/C-nu/nu mouse xenografted with human MCF7 cells assessed as histopathological lesions in spleen at 20 to 30 mg/kg, iv administered every other day for 15 days by H and E staining based analysis; assay type: organism-based; conditions: in vivo, 360 h, dose 20-30 mg/kg, time 15 day
[16] = system: MCF7; experiment: Induction of apoptosis in human MCF7 cells assessed as late apoptotic cells at 0.62 uM incubated for 48 hrs by Annexin V-FITC/PI staining based flow cytometric analysis (reference value: 5.31 %); assay type: functional
[17] = system: MCF7; experiment: Inhibition of cell migration in human MCF7 cells assessed as reduction in wound healing index at 0.625 uM measured after 72 hrs by scratch assay; assay type: functional, cell-based
[18] = Acute toxicity in BALB/c nu/nu mouse assessed as survival rate at 120 mg/kg, ip administered for 7 days relative to control; assay type: organism-based; conditions: in vivo, time 7 day
[19] = system: MCF7; experiment: Induction of cell cycle arrest in human MCF7 cells assessed as decrease in G0/G1 phase cells at 5 uM incubated for 24 hrs by PI staining based flow cytometric analysis; assay type: functional
[20] = system: A549; experiment: Antiproliferative activity against human A549 cells assessed as reduction in cell viability incubated for 2 days by MTT assay; assay type: functional, cell-based; conditions: A549, 48 h
[21] = system: MCF7; experiment: Antitumor activity against human MCF7 cells xenografted in BALB/C-nu/nu mouse model assessed as inhibition of Ki-67 expression level at 20 to 30 mg/kg, iv administered every other day for 15 days by immunohistochemical analysis; assay type: functional, organism-based; conditions: dose 20-30 mg/kg, time 15.0 day
[22] = system: MCF7; experiment: Antitumor activity against human MCF7 cells xenografted in BALB/C-nu/nu mouse model assessed as decrease in tumor volume at 30 mg/kg, iv administered every other day for 15 days relative to control; assay type: functional; set-up: scale not given: the % may be the effect or the level left; conditions: time 15 day
[23] = system: MCF7; experiment: Induction of DNA double-strand breaks in human MCF7 cells assessed as increase in gamma-H2AX foci formation at 10 uM incubated for 24 hrs by […] fluorescence microscopic analysis; assay type: functional, cell-based
[24] = system: MCF7; experiment: Induction of ROS accumulation in human MCF7 cells assessed as increase in green fluorescence at 5 uM incubated for 24 hrs by DCFH-DA staining based automated microscopic immunofluorescence analysis; assay type: functional, cell-based
[25] = system: MCF7; experiment: Antitumor activity against human MCF7 cells xenografted in BALB/C-nu/nu mouse model assessed as decrease in tumor volume at 20 mg/kg, iv administered every other day for 15 days relative to control; assay type: functional; set-up: scale not given: the % may be the effect or the level left; conditions: time 15 day
[26] = system: MCF7; experiment: Induction of morphological changes in human MCF7 cells assessed as cell membrane blebbing at 10 uM measured after 6 hrs by bright field microscopic; assay type: functional, cell-based
[27] = system: MCF7; experiment: Induction of DNA double-strand breaks in human MCF7 cells assessed as enlarged nucleus at 10 uM incubated for 24 hrs by Hoechst 33342 staining based fluorescence microscopic analysis; assay type: functional, cell-based
[28] = system: MCF7; experiment: Induction of apoptosis in human MCF7 cells assessed as necrotic cells at 0.62 uM incubated for 48 hrs by Annexin V-FITC/PI staining based flow cytometric analysis (reference value: 1.16 %); assay type: functional
[29] = system: MCF7; experiment: Induction of apoptosis in human MCF7 cells assessed as late apoptotic cells at 2.5 uM incubated for 48 hrs by Annexin V-FITC/PI staining based flow cytometric analysis (reference value: 5.31 %); assay type: functional
[30] = system: MCF7; experiment: Induction of apoptosis in human MCF7 cells assessed as viable cells at 1.25 uM incubated for 48 hrs by Annexin V-FITC/PI staining based flow cytometric analysis (reference value: 87.2 %); assay type: functional; conditions: read-out: Activity

CN(CCO)S(=O)(=O)c1ccc(-n2ncc(Cl)c(Cl)c2=O)cc1
Activity [1]: Active
IC50 [2]: 380 nM
inhibition [3]: Active
IC50 [4]: 780 nM
IC50 [5]: 1230 nM
Activity [6]: 44.6%
Activity [7]: 19.9%
LD50 at 168 h [8]: 105 mg/kg
Activity [9]: 26.7%
Activity [10]: 13.5%
Activity [11]: 7.62%
IC50 at 2 days [12]: 8340 nM
IC50 [13]: 1020 nM
Activity [14]: 10.2%
Activity [15]: Non-Toxic
Activity [16]: 6.63%
inhibition [17]: Active
survival at 168 h [18]: 0%
Activity [19]: Active
IC50 [20]: 2050 nM
Activity [21]: Active
Activity [22]: 61.6%
Activity [23]: Active
Activity [24]: Active
Activity [25]: 37.7%
Activity [26]: Active
Activity [27]: Active
Activity [28]: 1.3%
Activity [29]: 31%
viability at 1.25 µM [30]: 75.1%
